Data taken from ChEMBL document CHEMBL5463727, “Data for DCP probe SGK3-PROTAC1” (2023).
pIC50: −log10 of the molar value.

Assays:
[1] = target: Serine/threonine-protein kinase BRSK2 (Homo sapiens) (UniProt Q8IWQ3); test: % Activity remaining of BRSK2 in the Dundee kinase panel at 1.0 µM; settings: Compound concentration 1.0 uM
[2] = target: CDK9/cyclin T1 (Homo sapiens) (UniProt O60563+P50750); test: % Activity remaining of CDK9-Cyclin T1 in the Dundee kinase panel at 1.0 µM; assay type: protein-complex assay; settings: Compound concentration 1.0 uM
[3] = target: Casein kinase I isoform gamma-2 (Homo sapiens) (UniProt P78368); test: % Activity remaining of CK1 gamma 2 in the Dundee kinase panel at 1.0 µM; settings: Compound concentration 1.0 uM
[4] = target: Dual specificity tyrosine-phosphorylation-regulated kinase 3 (Homo sapiens) (UniProt O43781); test: % Activity remaining of DYRK3 in the Dundee kinase panel at 1.0 µM; settings: Compound concentration 1.0 uM
[5] = target: Eukaryotic translation initiation factor 2-alpha kinase 3 (Homo sapiens) (UniProt Q9NZJ5); test: % Activity remaining of EIF2AK3 in the Dundee kinase panel at 1.0 µM; settings: Compound concentration 1.0 uM
[6] = target: Receptor tyrosine-protein kinase erbB-4 (Homo sapiens) (UniProt Q15303); test: % Activity remaining of HER4 in the Dundee kinase panel at 1.0 µM; settings: Compound concentration 1.0 uM
[7] = target: Homeodomain-interacting protein kinase 1 (Homo sapiens) (UniProt Q86Z02); test: % Activity remaining of HIPK1 in the Dundee kinase panel at 1.0 µM; settings: Compound concentration 1.0 uM
[8] = target: Homeodomain-interacting protein kinase 2 (Homo sapiens) (UniProt Q9H2X6); test: % Activity remaining of HIPK2 in the Dundee kinase panel at 1.0 µM; settings: Compound concentration 1.0 uM
[9] = target: Inhibitor of nuclear factor kappa-B kinase subunit beta (Homo sapiens) (UniProt O14920); test: % Activity remaining of IKK beta in the Dundee kinase panel at 1.0 µM; settings: Compound concentration 1.0 uM
[10] = target: Inhibitor of nuclear factor kappa-B kinase subunit epsilon (Homo sapiens) (UniProt Q14164); test: % Activity remaining of IKK epsilon in the Dundee kinase panel at 1.0 µM; settings: Compound concentration 1.0 uM
[11] = target: Interleukin-1 receptor-associated kinase 1 (Homo sapiens) (UniProt P51617); test: % Activity remaining of IRAK1 in the Dundee kinase panel at 1.0 µM; settings: Compound concentration 1.0 uM
[12] = target: Insulin receptor-related protein (Homo sapiens) (UniProt P14616); test: % Activity remaining of IRR in the Dundee kinase panel at 1.0 µM; settings: Compound concentration 1.0 uM
[13] = target: Mitogen-activated protein kinase kinase kinase 1 (Homo sapiens) (UniProt Q13233); test: % Activity remaining of MEKK1 in the Dundee kinase panel at 1.0 µM; settings: Compound concentration 1.0 uM
[14] = target: Misshapen-like kinase 1 (Homo sapiens) (UniProt Q8N4C8); test: % Activity remaining of MINK1 in the Dundee kinase panel at 1.0 µM; settings: Compound concentration 1.0 uM
[15] = target: MAP kinase-interacting serine/threonine-protein kinase 1 (Homo sapiens) (UniProt Q9BUB5); test: % Activity remaining of MNK1 in the Dundee kinase panel at 1.0 µM; settings: Compound concentration 1.0 uM
[16] = target: Ribosomal protein S6 kinase alpha-5 (Homo sapiens) (UniProt O75582); test: % Activity remaining of MSK1 in the Dundee kinase panel at 1.0 µM; settings: Compound concentration 1.0 uM
[17] = target: Serine/threonine-protein kinase 3 (Homo sapiens) (UniProt Q13188); test: % Activity remaining of MST2 in the Dundee kinase panel at 1.0 µM; settings: Compound concentration 1.0 uM
[18] = target: Serine/threonine-protein kinase 24 (Homo sapiens) (UniProt Q9Y6E0); test: % Activity remaining of MST3 in the Dundee kinase panel at 1.0 µM; settings: Compound concentration 1.0 uM
[19] = target: Serine/threonine-protein kinase Nek6 (Homo sapiens) (UniProt Q9HC98); test: % Activity remaining of NEK6 in the Dundee kinase panel at 1.0 µM; settings: Compound concentration 1.0 uM
[20] = target: Mitogen-activated protein kinase 11 (Homo sapiens) (UniProt Q15759); test: % Activity remaining of p38 beta MAPK in the Dundee kinase panel at 1.0 µM; settings: Compound concentration 1.0 uM
[21] = target: Mitogen-activated protein kinase 12 (Homo sapiens) (UniProt P53778); test: % Activity remaining of p38 gamma MAPK in the Dundee kinase panel at 1.0 µM; settings: Compound concentration 1.0 uM
[22] = target: Serine/threonine-protein kinase PAK 2 (Homo sapiens) (UniProt Q13177); test: % Activity remaining of PAK2 in the Dundee kinase panel at 1.0 µM; settings: Compound concentration 1.0 uM
[23] = target: Platelet-derived growth factor receptor alpha (Homo sapiens) (UniProt P16234); test: % Activity remaining of PDGFRA in the Dundee kinase panel at 1.0 µM; settings: Compound concentration 1.0 uM
[24] = target: Serine/threonine-protein kinase pim-3 (Homo sapiens) (UniProt Q86V86); test: % Activity remaining of PIM3 in the Dundee kinase panel at 1.0 µM; settings: Compound concentration 1.0 uM
[25] = target: Receptor-interacting serine/threonine-protein kinase 2 (Homo sapiens) (UniProt O43353); test: % Activity remaining of RIPK2 in the Dundee kinase panel at 1.0 µM; settings: Compound concentration 1.0 uM
[26] = target: T1, Serine/threonine-protein kinase Sgk1 (Homo sapiens) (UniProt O00141); test: (§1) % Activity remaining of SGK1 in the Dundee kinase panel at 1.0 µM; settings: Compound concentration 1.0 uM
T1 sequence (whole entry): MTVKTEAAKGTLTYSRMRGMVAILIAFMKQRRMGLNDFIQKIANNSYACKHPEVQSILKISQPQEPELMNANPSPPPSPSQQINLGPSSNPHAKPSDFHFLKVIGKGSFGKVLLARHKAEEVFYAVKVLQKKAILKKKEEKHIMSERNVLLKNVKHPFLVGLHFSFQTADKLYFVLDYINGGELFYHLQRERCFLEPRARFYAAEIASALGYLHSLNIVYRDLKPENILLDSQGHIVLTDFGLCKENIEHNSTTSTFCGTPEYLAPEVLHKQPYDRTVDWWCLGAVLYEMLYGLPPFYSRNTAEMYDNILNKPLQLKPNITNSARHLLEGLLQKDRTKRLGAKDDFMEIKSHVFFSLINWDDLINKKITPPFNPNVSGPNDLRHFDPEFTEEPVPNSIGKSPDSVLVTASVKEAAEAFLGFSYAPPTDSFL

[27] = target: Serine/threonine-protein kinase Sgk1 (Homo sapiens, UniProt O00141); test: as §1
[28] = target: Serine/threonine-protein kinase SIK2 (Homo sapiens) (UniProt Q9H0K1); test: % Activity remaining of SIK2 in the Dundee kinase panel at 1.0 µM; settings: Compound concentration 1.0 uM
[29] = target: Myosin light chain kinase, smooth muscle (Homo sapiens) (UniProt Q15746); test: % Activity remaining of SmMLCK in the Dundee kinase panel at 1.0 µM; settings: Compound concentration 1.0 uM
[30] = target: SRSF protein kinase 1 (Homo sapiens) (UniProt Q96SB4); test: % Activity remaining of SRPK1 in the Dundee kinase panel at 1.0 µM; settings: Compound concentration 1.0 uM
[31] = target: Serine/threonine-protein kinase TBK1 (Homo sapiens) (UniProt Q9UHD2); test: % Activity remaining of TBK1 in the Dundee kinase panel at 1.0 µM; settings: Compound concentration 1.0 uM
[32] = target: TGF-beta receptor type-1 (Homo sapiens) (UniProt P36897); test: % Activity remaining of TGFBR1 in the Dundee kinase panel at 1.0 µM; settings: Compound concentration 1.0 uM
[33] = target: Tau-tubulin kinase 2 (Homo sapiens) (UniProt Q6IQ55); test: % Activity remaining of TTBK2 in the Dundee kinase panel at 1.0 µM; settings: Compound concentration 1.0 uM
[34] = target: Ephrin type-B receptor 2 (Homo sapiens) (UniProt P29323); test: % Activity remaining of EPH-B2 in the Dundee kinase panel at 1.0 µM; settings: Compound concentration 1.0 uM

Chain of Homeodomain-interacting protein kinase 2 (Homo sapiens) (Q9H2X6 whole entry, looked up): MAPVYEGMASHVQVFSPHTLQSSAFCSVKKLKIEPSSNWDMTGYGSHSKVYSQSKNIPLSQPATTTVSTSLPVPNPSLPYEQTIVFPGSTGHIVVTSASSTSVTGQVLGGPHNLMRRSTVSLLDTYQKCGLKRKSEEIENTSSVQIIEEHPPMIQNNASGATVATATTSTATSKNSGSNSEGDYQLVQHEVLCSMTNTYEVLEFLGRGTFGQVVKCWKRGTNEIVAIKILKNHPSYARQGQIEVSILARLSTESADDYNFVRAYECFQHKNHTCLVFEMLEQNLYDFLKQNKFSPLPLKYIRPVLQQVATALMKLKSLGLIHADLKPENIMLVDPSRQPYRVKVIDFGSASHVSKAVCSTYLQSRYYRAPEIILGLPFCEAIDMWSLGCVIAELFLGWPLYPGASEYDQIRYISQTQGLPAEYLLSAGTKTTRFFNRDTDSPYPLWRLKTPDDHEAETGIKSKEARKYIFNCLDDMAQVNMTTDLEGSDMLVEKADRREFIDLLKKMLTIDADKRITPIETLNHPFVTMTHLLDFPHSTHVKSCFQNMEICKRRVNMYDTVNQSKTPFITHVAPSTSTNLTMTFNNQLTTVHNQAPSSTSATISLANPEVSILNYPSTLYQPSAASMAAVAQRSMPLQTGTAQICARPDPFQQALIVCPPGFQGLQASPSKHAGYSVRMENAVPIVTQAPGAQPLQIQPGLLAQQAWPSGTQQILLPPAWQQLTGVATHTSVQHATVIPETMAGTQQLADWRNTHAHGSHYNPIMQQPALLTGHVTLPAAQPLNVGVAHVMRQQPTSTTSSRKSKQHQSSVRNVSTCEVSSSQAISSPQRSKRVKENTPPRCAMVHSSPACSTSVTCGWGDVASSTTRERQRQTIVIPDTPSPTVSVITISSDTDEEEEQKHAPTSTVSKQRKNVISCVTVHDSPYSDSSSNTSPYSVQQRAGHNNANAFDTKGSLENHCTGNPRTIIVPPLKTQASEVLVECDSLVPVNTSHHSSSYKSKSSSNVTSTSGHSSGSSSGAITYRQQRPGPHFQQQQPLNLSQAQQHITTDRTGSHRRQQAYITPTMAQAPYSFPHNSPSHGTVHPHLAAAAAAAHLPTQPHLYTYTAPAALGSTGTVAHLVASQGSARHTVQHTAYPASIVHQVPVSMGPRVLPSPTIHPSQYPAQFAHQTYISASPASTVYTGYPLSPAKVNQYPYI
Chain of Interleukin-1 receptor-associated kinase 1 (Homo sapiens) (P51617 whole entry, looked up): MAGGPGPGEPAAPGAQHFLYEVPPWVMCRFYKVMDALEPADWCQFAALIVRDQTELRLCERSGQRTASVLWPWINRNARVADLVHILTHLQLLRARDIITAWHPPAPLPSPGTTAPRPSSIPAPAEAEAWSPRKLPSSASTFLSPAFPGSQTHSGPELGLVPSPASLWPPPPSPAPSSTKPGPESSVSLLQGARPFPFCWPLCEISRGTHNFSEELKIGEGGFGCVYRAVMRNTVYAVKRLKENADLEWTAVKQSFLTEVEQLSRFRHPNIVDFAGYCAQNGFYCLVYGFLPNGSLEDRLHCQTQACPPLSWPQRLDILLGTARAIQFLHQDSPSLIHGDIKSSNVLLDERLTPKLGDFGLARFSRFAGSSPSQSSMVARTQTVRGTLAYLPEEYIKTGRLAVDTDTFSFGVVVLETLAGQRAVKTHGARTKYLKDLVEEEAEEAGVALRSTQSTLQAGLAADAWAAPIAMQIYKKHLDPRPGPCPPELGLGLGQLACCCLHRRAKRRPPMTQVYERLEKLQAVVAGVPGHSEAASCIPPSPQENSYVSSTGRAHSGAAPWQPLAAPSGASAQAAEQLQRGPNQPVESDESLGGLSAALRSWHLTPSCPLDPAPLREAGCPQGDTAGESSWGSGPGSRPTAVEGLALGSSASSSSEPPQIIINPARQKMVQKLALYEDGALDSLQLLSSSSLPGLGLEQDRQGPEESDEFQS
Chain of Serine/threonine-protein kinase BRSK2 (Homo sapiens) (Q8IWQ3 whole entry): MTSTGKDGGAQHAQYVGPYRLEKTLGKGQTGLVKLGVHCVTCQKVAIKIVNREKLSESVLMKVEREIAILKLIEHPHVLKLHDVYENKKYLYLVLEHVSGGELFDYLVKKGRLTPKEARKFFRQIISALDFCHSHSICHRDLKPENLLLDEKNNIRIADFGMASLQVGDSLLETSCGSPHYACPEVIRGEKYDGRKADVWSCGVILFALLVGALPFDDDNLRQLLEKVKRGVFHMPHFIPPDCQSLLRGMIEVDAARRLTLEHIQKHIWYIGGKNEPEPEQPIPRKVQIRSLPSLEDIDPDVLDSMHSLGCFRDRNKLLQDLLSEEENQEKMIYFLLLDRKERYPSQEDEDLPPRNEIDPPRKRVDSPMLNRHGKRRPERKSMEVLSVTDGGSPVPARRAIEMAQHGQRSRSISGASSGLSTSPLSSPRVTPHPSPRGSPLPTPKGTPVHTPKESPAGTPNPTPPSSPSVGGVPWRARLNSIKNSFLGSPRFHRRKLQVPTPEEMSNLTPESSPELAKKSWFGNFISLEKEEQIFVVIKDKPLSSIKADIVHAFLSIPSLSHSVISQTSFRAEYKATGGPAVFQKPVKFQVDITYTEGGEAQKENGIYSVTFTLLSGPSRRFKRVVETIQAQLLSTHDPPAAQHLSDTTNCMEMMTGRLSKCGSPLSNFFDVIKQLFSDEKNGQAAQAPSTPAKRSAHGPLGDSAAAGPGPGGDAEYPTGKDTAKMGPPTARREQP
Chain of Platelet-derived growth factor receptor alpha (Homo sapiens) (P16234 whole entry): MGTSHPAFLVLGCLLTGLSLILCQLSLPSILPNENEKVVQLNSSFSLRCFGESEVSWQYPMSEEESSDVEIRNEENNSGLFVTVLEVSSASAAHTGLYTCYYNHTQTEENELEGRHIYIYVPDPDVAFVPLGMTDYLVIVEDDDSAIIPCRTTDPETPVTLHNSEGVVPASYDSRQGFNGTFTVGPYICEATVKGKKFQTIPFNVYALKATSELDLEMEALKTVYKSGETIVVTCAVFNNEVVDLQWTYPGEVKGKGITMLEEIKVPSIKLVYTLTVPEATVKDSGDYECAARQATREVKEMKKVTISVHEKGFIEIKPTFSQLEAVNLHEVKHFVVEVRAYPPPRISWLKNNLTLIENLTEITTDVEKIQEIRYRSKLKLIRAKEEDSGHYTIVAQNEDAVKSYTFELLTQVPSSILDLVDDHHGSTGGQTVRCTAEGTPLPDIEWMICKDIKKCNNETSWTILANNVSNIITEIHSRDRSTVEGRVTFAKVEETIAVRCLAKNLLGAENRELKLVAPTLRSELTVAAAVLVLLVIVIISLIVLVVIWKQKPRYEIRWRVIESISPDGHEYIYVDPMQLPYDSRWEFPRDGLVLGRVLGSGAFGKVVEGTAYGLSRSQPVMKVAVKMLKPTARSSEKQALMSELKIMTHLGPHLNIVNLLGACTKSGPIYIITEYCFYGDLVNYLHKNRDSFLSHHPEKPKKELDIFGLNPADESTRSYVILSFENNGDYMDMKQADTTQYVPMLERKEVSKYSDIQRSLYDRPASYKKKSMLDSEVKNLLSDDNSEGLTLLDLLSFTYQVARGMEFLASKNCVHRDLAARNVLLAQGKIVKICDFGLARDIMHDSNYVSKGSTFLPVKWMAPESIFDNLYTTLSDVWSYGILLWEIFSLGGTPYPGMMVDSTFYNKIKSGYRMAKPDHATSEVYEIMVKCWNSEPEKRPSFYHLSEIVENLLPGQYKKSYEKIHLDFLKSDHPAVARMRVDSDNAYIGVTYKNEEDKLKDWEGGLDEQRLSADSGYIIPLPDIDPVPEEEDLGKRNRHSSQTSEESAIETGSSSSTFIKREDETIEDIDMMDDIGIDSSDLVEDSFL
Chain of SRSF protein kinase 1 (Homo sapiens) (Q96SB4 whole entry): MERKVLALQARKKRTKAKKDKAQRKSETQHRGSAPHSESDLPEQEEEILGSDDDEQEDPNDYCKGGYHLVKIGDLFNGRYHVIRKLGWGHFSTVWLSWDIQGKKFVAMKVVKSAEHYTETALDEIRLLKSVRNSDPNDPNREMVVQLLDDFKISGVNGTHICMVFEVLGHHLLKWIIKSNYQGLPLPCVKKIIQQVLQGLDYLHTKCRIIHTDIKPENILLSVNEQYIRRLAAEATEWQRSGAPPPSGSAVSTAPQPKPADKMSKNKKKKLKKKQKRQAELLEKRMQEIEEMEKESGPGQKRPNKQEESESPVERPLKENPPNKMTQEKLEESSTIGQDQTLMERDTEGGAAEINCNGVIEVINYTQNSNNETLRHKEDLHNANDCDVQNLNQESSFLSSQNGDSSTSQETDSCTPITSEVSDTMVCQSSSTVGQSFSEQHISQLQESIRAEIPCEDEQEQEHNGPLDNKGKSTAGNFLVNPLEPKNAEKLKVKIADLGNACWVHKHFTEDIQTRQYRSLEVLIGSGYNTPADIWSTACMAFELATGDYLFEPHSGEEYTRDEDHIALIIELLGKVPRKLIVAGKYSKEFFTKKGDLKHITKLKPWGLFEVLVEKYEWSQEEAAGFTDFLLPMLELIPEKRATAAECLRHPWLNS
Chain of Mitogen-activated protein kinase 11 (Homo sapiens) (Q15759 whole entry): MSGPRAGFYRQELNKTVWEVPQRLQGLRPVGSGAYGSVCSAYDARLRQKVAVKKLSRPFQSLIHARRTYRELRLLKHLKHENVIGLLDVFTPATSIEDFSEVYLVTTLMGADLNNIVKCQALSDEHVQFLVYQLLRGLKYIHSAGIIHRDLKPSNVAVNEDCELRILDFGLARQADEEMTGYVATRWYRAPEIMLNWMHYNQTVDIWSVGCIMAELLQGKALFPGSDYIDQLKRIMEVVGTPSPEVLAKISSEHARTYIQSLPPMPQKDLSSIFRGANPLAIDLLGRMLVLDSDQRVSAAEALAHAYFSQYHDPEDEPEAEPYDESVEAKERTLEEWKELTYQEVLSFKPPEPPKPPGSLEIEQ
Chain of Serine/threonine-protein kinase Nek6 (Homo sapiens) (Q9HC98 whole entry): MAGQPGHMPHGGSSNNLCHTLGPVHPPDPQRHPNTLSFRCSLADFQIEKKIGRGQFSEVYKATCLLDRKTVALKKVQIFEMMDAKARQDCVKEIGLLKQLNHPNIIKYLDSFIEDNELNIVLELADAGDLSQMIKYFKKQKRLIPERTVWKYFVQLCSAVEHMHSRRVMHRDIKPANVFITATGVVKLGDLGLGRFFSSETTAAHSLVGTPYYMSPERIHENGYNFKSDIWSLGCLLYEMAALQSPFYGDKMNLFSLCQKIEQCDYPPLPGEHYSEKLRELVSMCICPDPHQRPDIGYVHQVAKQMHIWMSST

SMILES	% Activity remaining [1] [%]	% Activity remaining [2] [%]	% Activity remaining [3] [%]	% Activity remaining [4] [%]	% Activity remaining [5] [%]	% Activity remaining [6] [%]	% Activity remaining [7] [%]	% Activity remaining [8] [%]	% Activity remaining [9] [%]	% Activity remaining [10] [%]	% Activity remaining [11] [%]	% Activity remaining [12] [%]	% Activity remaining [13] [%]	% Activity remaining [14] [%]	% Activity remaining [15] [%]	% Activity remaining [16] [%]	% Activity remaining [17] [%]	% Activity remaining [18] [%]	% Activity remaining [19] [%]	% Activity remaining [20] [%]	other results
Cc1ccc(F)c(S(=O)(=O)Nc2ccc(-c3nc(OC[C@H]4CN(CCCCCCOCCOCCOCC(=O)N[C@H](C(=O)N5C[C@H](O)C[C@H]5C(=O)NCc5ccc(-c6scnc6C)cc5)C(C)(C)C)CCO4)c4cn[nH]c4n3)cc2)c1	97.2	103	101	102	106	92	135	109	99.9	108	98.3	103	124	115	108	49.6	112	102	106	107	% Activity remaining [21]: 107%; % Activity remaining [22]: 116%; % Activity remaining [23]: 101%; % Activity remaining [24]: 88.1%; % Activity remaining [25]: 88.4%; % Activity remaining [26]: 34.5%; pIC50 [27]: 6.66; % Activity remaining [28]: 94.6%; % Activity remaining [29]: 52.9%; % Activity remaining [30]: 95.8%; % Activity remaining [31]: 93.4%; % Activity remaining [32]: 124%; % Activity remaining [33]: 93.5%; % Activity remaining [34]: 93.9%
Cc1ccc(F)c(S(=O)(=O)Nc2ccc(-c3nc(OC[C@H]4CN(CCCCCCOCCOCCOCC(=O)N[C@H](C(=O)N5C[C@@H](O)C[C@H]5C(=O)NCc5ccc(-c6scnc6C)cc5)C(C)(C)C)CCO4)c4cn[nH]c4n3)cc2)c1	101	105	106	104	111	103	126	99.7	101	99	105	89.9	128	116	103	56.5	100	113	111	112	% Activity remaining [21]: 127%; % Activity remaining [22]: 98.7%; % Activity remaining [23]: 94.8%; % Activity remaining [24]: 88.8%; % Activity remaining [25]: 94.2%; % Activity remaining [26]: 50.9%; pIC50 [27]: 5.85; % Activity remaining [28]: 93.8%; % Activity remaining [29]: 70.7%; % Activity remaining [30]: 104%; % Activity remaining [31]: 111%; % Activity remaining [32]: 114%; % Activity remaining [33]: 89.7%; % Activity remaining [34]: 97.4%
